In PubChem BioAssay (NCI):
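Values below derive from 48-hour exposures of cells grown in 96-well plates, with endpoints linearly interpolated between the two concentrations bracketing the appropriate inhibition level. GI50: concentration for 50% inhibition of growth. The concentration for full growth arrest is given as TGI.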

Assays:
Assay in all cases: NCI-60 cell line screen, 48 h
[1] = system: 786-0 renal
[2] = system: A498 renal
[3] = system: A549 NSCLC
[4] = system: ACHN renal
[5] = system: BT-549 breast
[6] = system: CAKI-1 renal
[7] = system: CCRF-CEM leukemia
[8] = system: COLO 205 colon
[9] = system: DU-145 prostate
[10] = system: EKVX NSCLC
[11] = system: HCC-2998 colon
[12] = system: HCT-116 colon
[13] = system: HCT-15 colon
[14] = system: HL-60(TB) leukemia
[15] = system: HOP-62 NSCLC
[16] = system: HOP-92 NSCLC
[17] = system: HS 578T breast
[18] = system: HT29 colon
[19] = system: IGROV1 ovarian
[20] = system: K-562 leukemia
[21] = system: KM12 colon
[22] = system: LOX IMVI melanoma
[23] = system: M14 melanoma
[24] = system: MALME-3M melanoma
[25] = system: MCF7 breast
[26] = system: MDA-MB-231 breast
[27] = system: MDA-MB-435
[28] = system: MOLT-4 leukemia
[29] = system: NCI-H226 lung
[30] = system: NCI-H23 lung
[31] = system: NCI-H460 lung
[32] = system: NCI-H522 lung
[33] = system: NCI/ADR-RES ovarian
[34] = system: OVCAR-3 ovarian
[35] = system: OVCAR-4 ovarian
[36] = system: OVCAR-5 ovarian
[37] = system: OVCAR-8 ovarian
[38] = system: PC-3 prostate
[39] = system: RPMI-8226 leukemia
[40] = system: RXF 393 renal
[41] = system: SF-268 CNS
[42] = system: SF-295 CNS
[43] = system: SF-539 CNS
[44] = system: SK-MEL-2 melanoma
[45] = system: SK-MEL-28 melanoma
[46] = system: SK-MEL-5 melanoma
[47] = system: SK-OV-3 ovarian
[48] = system: SN12C renal
[49] = system: SNB-19 CNS
[50] = system: SNB-75 CNS
[51] = system: SR leukemia
[52] = system: SW-620 colon
[53] = system: T-47D breast
[54] = system: TK-10 renal
[55] = system: U251 CNS
[56] = system: UACC-257 melanoma
[57] = system: UACC-62 melanoma
[58] = system: UO-31 renal

Cn1ccnc1C(=O)/C=C/c1ccc(C(=O)Nc2ccccc2F)cc1
GI50 [1]: 1.69 µM
TGI [1]: 3.32 µM
GI50 [2]: 2.41 µM
TGI [2]: 8.21 µM
GI50 [3]: 3.01 µM
TGI [3]: 13.2 µM
GI50 [4]: 2.01 µM
TGI [4]: 4.15 µM
GI50 [5]: 1.77 µM
TGI [5]: 4.21 µM
GI50 [6]: 1.04 µM
TGI [6]: 4.33 µM
GI50 [7]: 1.18 µM
TGI [7]: 7.54 µM
GI50 [8]: 2.74 µM
TGI [8]: 6.67 µM
GI50 [9]: 1.64 µM
TGI [9]: 3.32 µM
GI50 [10]: 2.9 µM
TGI [10]: 11.5 µM
GI50 [11]: 2.34 µM
TGI [11]: 4.67 µM
GI50 [12]: 0.862 µM
TGI [12]: 2.35 µM
GI50 [13]: 1.33 µM
TGI [13]: 4.06 µM
GI50 [14]: 1.6 µM
TGI [14]: 4.33 µM
GI50 [15]: 4.27 µM
TGI [15]: 17.1 µM
GI50 [16]: 1.9 µM
TGI [16]: 7.07 µM
GI50 [17]: 3.02 µM
TGI [17]: 15.4 µM
GI50 [18]: 2.49 µM
TGI [18]: 6.68 µM
GI50 [19]: 2.12 µM
TGI [19]: 5.05 µM
GI50 [20]: 0.372 µM
TGI [20]: > 100 µM
GI50 [21]: 1.89 µM
TGI [21]: 3.82 µM
GI50 [22]: 0.636 µM
TGI [22]: 2.24 µM
GI50 [23]: 1.7 µM
TGI [23]: 3.81 µM
GI50 [24]: 1.93 µM
TGI [24]: 4.58 µM
GI50 [25]: 1.82 µM
TGI [25]: 6.63 µM
GI50 [26]: 3.24 µM
TGI [26]: 10.5 µM
GI50 [27]: 2.09 µM
TGI [27]: 5.04 µM
GI50 [28]: 2.38 µM
TGI [28]: 6.41 µM
GI50 [29]: 2.63 µM
TGI [29]: 10.3 µM
GI50 [30]: 2.85 µM
TGI [30]: 9.43 µM
GI50 [31]: 1.94 µM
TGI [31]: 5.43 µM
GI50 [32]: 2.66 µM
TGI [32]: 8.76 µM
GI50 [33]: 3.29 µM
TGI [33]: 22.5 µM
GI50 [34]: 2 µM
TGI [34]: 4.57 µM
GI50 [35]: 2.76 µM
TGI [35]: 12.8 µM
GI50 [36]: 2.42 µM
TGI [36]: 6.42 µM
GI50 [37]: 3.68 µM
TGI [37]: 21.6 µM
GI50 [38]: 1.89 µM
TGI [38]: 4.47 µM
GI50 [39]: 0.567 µM
TGI [39]: 2.82 µM
GI50 [40]: 1.75 µM
TGI [40]: 3.63 µM
GI50 [41]: 2.46 µM
TGI [41]: 9.16 µM
GI50 [42]: 4.6 µM
TGI [42]: 16.3 µM
GI50 [43]: 1.75 µM
TGI [43]: 4.24 µM
GI50 [44]: 6.25 µM
TGI [44]: 28.1 µM
GI50 [45]: 2.04 µM
TGI [45]: 4.59 µM
GI50 [46]: 2.14 µM
TGI [46]: 4.56 µM
GI50 [47]: 6.53 µM
TGI [47]: 20.6 µM
GI50 [48]: 2.63 µM
TGI [48]: 9.56 µM
GI50 [49]: 2.06 µM
TGI [49]: 5.66 µM
GI50 [50]: 1.36 µM
TGI [50]: 8.03 µM
GI50 [51]: 0.304 µM
TGI [51]: 2.34 µM
GI50 [52]: 1.76 µM
TGI [52]: 6.29 µM
GI50 [53]: 2.9 µM
TGI [53]: 17.8 µM
GI50 [54]: 3.84 µM
TGI [54]: 15.9 µM
GI50 [55]: 1.3 µM
TGI [55]: 3.29 µM
GI50 [56]: 3.51 µM
TGI [56]: 14 µM
GI50 [57]: 1.98 µM
TGI [57]: 4.47 µM
GI50 [58]: 1.38 µM
TGI [58]: 2.67 µM

O=C(CCl)Nc1ccc2c(Nc3cc(O)ccc3Cl)ncnc2c1
GI50 [1]: 1.24 µM
TGI [1]: 4.56 µM
GI50 [2]: 5.51 µM
TGI [2]: 11.1 µM
GI50 [3]: 4.08 µM
TGI [3]: 8.26 µM
GI50 [4]: 2.87 µM
TGI [4]: 6.52 µM
GI50 [5]: 2.02 µM
TGI [5]: 5.81 µM
GI50 [6]: 3.36 µM
TGI [6]: 7.45 µM
GI50 [7]: 0.892 µM
TGI [7]: 3.02 µM
GI50 [8]: 4.03 µM
TGI [8]: 8.06 µM
GI50 [9]: 2.39 µM
TGI [9]: 5.36 µM
GI50 [10]: 3.03 µM
TGI [10]: 6.87 µM
GI50 [11]: 4.9 µM
TGI [11]: 9.81 µM
GI50 [12]: 0.93 µM
TGI [12]: 3.99 µM
GI50 [13]: 0.773 µM
TGI [13]: 3.32 µM
GI50 [14]: 1.15 µM
TGI [14]: 4.88 µM
GI50 [15]: 3.27 µM
TGI [15]: 7.17 µM
GI50 [16]: 4.86 µM
TGI [16]: 9.38 µM
GI50 [17]: 3.27 µM
TGI [17]: 15.2 µM
GI50 [18]: 1.93 µM
TGI [18]: 5.78 µM
GI50 [19]: 2.12 µM
TGI [19]: 6.32 µM
GI50 [20]: 0.929 µM
TGI [20]: 7.23 µM
GI50 [21]: 3.23 µM
TGI [21]: 7.11 µM
GI50 [22]: 0.818 µM
TGI [22]: 3.64 µM
GI50 [23]: 3.3 µM
TGI [23]: 7.26 µM
GI50 [24]: 3.9 µM
TGI [24]: 8.1 µM
GI50 [25]: 1.07 µM
TGI [25]: 5 µM
GI50 [26]: 2.75 µM
TGI [26]: 6.25 µM
GI50 [27]: 2.21 µM
TGI [27]: 5.75 µM
GI50 [28]: 0.846 µM
TGI [28]: 4.03 µM
GI50 [29]: 5.86 µM
TGI [29]: 12.3 µM
GI50 [30]: 2.73 µM
TGI [30]: 7.1 µM
GI50 [31]: 2.33 µM
TGI [31]: 6.4 µM
GI50 [32]: 0.664 µM
TGI [32]: 2.12 µM
GI50 [33]: 3.55 µM
TGI [33]: 9.31 µM
GI50 [34]: 1.71 µM
TGI [34]: 5.2 µM
GI50 [35]: 3.09 µM
TGI [35]: 7.44 µM
GI50 [36]: 3.4 µM
TGI [36]: 7.03 µM
GI50 [37]: 3.71 µM
TGI [37]: 10.1 µM
GI50 [38]: 3.02 µM
TGI [38]: 6.79 µM
GI50 [39]: 2.94 µM
TGI [39]: 7.66 µM
GI50 [40]: 3.37 µM
TGI [40]: 7.13 µM
GI50 [41]: 2.65 µM
TGI [41]: 6.63 µM
GI50 [42]: 2.58 µM
TGI [42]: 5.96 µM
GI50 [43]: 3.38 µM
TGI [43]: 6.84 µM
GI50 [44]: 3.65 µM
TGI [44]: 8.19 µM
GI50 [45]: 3.66 µM
TGI [45]: 7.97 µM
GI50 [46]: 3.22 µM
TGI [46]: 6.76 µM
GI50 [47]: 4.24 µM
TGI [47]: 7.94 µM
GI50 [48]: 1.21 µM
TGI [48]: 4.06 µM
GI50 [49]: 2.14 µM
TGI [49]: 5.22 µM
GI50 [50]: 3.28 µM
TGI [50]: 6.56 µM
GI50 [51]: 0.758 µM
TGI [51]: 3.72 µM
GI50 [52]: 1.14 µM
TGI [52]: 3.79 µM
GI50 [53]: 3.51 µM
TGI [53]: 7.72 µM
GI50 [54]: 3.87 µM
TGI [54]: 8.23 µM
GI50 [55]: 0.828 µM
TGI [55]: 2.97 µM
GI50 [56]: 4.02 µM
TGI [56]: 8.44 µM
GI50 [57]: 2.38 µM
TGI [57]: 5.98 µM
GI50 [58]: 2.69 µM
TGI [58]: 6 µM
